Measured values from patent US9126999B2, “Tetrahydropyrazolopyrimidine compounds” (EISAI R&D MANAGEMENT CO., LTD., priority 2012, dated 2015).
Read-outs that look alike come from different tables or passages of the source.

Experiments:
[1] = system: T1, Human TLR7/8; experiment: Human PBMC cell-based assay, RNA-Ig (SL4-Ig) stimulus, cytokine ELISA
T1 construct: IC50; other: Hu PBMC; ligand RNA-Ig; analyte IL-6; analyte TNFα; ligand R848; IC50 against the RNA-Ig TLR7/8 stimulus; cytokine responses to RNA-Ig complexes in vitro; potency against the RNA-Ig TLR7/8 stimulus versus HCQ
Procedure: (§1) Briefly, 25 ml blood was diluted with 15 ml PBS (without Ca^2+, Mg^2+) in a 50 ml conical tube, and 12 ml Histopaque was underlaid using a spinal needle. Tubes were centrifuged for 45 minutes at 1200 rpm (350×g), and PBMC were collected from the buffy coat. Cells were then washed twice in PBS, and red blood cells were lysed by suspension in 5 ml ammonium chloride solution (1× Red Blood Cell Lysis Buffer, eBioscience) for 5 minutes at room temperature.
Antagonist compounds solubilized and serial diluted in 100% DMSO were added in triplicate to cells to yield a final concentration of 0.1% DMSO (v/v). Hydroxychloroquine (Acros Organics) solubilized and serial diluted in PBS was added in triplicate to cells. […] The resulting “RNA-Ig” stimulus was incubated at room temperature for 15-30 minutes before adding to cells. PBMC were incubated with the various TLR agonists for 20 hours at 37° C., 5% CO2. Cell culture supernatants were collected, and levels of various human cytokines were assessed as indicated by standard ELISA procedure according to the manufacturer's recommended protocol (BD Biosciences, Inc., San Diego, Calif.).

[2] = biological target: T2, Human TLR8 (Homo sapiens, UniProt Q9NR97); experiment: HEK-293 NF-kappaB luciferase reporter assay, CL097 stimulus; assay type: cell-based; conditions: human TLR8 in the HEK-293 assay format; read-out: HEK/TLR8 IC50
T2 construct: host or cells: HEK-293 stably expressing human TLR8, then transfected with pNiFty2(NF-kappaB)-luciferase
T2 sequence (Q9NR97 27-1041): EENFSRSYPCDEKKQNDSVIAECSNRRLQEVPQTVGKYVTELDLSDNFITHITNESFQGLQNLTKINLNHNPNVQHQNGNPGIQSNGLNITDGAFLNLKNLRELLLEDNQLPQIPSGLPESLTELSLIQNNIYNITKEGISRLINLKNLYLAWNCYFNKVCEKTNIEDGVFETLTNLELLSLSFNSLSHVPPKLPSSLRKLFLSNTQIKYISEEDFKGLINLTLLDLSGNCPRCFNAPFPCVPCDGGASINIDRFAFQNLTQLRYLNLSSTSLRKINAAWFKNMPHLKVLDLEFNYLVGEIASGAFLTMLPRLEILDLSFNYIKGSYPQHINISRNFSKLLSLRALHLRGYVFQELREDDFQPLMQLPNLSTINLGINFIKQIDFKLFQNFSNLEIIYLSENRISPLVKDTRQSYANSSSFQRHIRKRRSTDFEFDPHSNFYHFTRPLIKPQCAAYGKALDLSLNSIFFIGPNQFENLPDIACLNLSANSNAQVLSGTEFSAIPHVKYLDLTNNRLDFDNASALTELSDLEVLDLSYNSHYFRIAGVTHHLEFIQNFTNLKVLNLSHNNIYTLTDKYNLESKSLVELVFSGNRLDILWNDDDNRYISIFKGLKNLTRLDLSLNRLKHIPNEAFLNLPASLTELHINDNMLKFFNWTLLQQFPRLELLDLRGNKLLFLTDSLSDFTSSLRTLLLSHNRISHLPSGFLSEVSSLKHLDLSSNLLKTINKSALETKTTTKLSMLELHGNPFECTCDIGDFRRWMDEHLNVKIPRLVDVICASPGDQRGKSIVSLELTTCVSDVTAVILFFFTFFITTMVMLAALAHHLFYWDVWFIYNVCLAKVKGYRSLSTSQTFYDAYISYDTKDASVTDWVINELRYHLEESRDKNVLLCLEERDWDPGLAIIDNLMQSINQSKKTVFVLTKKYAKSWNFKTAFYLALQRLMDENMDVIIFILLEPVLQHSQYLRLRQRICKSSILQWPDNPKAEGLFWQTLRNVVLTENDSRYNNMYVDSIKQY
Excerpt: In vitro pharmacology: HEK-293 cells (ATCC) were engineered to stably express a NF-kappaB transcription factor inducible E-selectin (ELAM-1) luciferase reporter derived from the plasmid pGL3 (Promega) containing base pairs −2241 bp to −254 bp from the promoter of the human E-selectin gene (Accession No. NM_000450). These cells were then subsequently engineered to stably and individually express human TLR4, TLR7 or TLR9 full-length ORF cDNAs. Human TLR4 cDNA (Accession No. NM_138554) was cloned into pcDNA 3.0 expression vector (Invitrogen). TLR4 transfected cells were also engineered to express human MD-2 co-receptor [MD-2 cDNA (Accession No. NM_015364) was cloned into the pEF-BOS vector] and were supplemented with 10 nM soluble CD14 (R&D Systems) in the media to optimize LPS responsiveness. Human TLR9 cDNA (Accession No. NM_017442) was cloned into the pBluescript II KS vector (Agilent). Human TLR7 cDNA (Accession No. NM_016562) was obtained from OriGene. HEK-293 cells stably expressing human TLR8 (Accession No. NM_138636) or mouse TLR7 (Accession No. NM_133211) were purchased from InvivoGen and were then stably transfected with pNiFty2(NF-kappaB)-luciferase reporter plasmid (InvivoGen). Each cell type was plated in Dulbecco's modified Eagle's medium (DMEM) containing 10% fetal bovine serum (FBS) at a density of 2.22×10^5 cells/ml into a 384-well plate and incubated for 2 days at 37° C., 5% CO2. Varying concentrations of antagonist compounds were then added. Cells were then incubated for another 30 minutes before adding the appropriate TLR agonist as follows (final concentrations indicated): lipopolysaccharide (LPS; Sigma) at 10 ng/ml for TLR4, CL097 (InvivoGen) at 3 ug/ml for human TLR7 and TLR8 and mouse TLR7, and CpG-2006-2A [sequence: […] (SEQ ID NO: 1) with phosphorothioate backbone, synthesized by Sigma-Aldrich] at 0.6 uM for TLR9.

[3] = biological target: T3, Human TLR9 (Homo sapiens, UniProt Q9NR96); experiment: Human PBMC cell-based assay, CpG-ODN stimulus, IL-6 ELISA; set-up: endogenous in cells; host or cells: primary human PBMC from healthy donor blood; conditions: Hu PBMC; ligand CpG-ODN; analyte IL-6
T3 sequence (Q9NR96 26-1032): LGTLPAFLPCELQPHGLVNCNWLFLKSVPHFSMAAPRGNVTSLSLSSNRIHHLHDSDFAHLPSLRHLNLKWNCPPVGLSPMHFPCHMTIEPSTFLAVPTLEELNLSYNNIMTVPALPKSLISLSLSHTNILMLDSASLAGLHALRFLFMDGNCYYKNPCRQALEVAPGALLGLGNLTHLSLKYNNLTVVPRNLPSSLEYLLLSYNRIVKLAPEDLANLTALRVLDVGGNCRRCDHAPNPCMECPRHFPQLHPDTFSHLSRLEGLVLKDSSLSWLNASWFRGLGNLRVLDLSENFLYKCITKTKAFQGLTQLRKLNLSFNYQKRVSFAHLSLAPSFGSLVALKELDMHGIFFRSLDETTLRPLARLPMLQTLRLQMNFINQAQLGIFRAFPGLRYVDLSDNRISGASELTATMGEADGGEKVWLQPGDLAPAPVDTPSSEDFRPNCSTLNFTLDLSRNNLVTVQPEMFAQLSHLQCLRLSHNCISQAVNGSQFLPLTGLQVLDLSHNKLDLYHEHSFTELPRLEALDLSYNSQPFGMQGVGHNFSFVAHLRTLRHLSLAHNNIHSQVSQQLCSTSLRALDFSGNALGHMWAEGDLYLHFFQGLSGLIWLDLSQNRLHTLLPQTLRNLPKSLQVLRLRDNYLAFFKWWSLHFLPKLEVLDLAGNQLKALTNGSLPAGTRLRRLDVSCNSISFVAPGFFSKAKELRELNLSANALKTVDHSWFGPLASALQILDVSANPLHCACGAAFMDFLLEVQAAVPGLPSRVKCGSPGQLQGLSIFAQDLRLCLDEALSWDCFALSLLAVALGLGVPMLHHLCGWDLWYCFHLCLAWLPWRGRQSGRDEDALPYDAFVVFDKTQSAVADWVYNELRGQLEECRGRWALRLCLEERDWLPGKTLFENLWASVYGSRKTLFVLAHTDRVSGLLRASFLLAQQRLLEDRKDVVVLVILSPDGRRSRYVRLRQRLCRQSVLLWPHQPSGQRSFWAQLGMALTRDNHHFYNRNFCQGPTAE
Procedure: as §1, with “Human peripheral blood mononuclear cells (PBMC) were isolated from freshly-drawn heparinized (10 USP units/ml, Hospira, Lakeforest, Ill.) healthy donor whole blood by density gradient (Histopaque® 1077, Sigma, Inc., St. Louis, Mo.). Briefly,” for “Briefly,”, “temperature. […]” for “temperature.”
(§2) Antagonist compounds solubilized and serial diluted in 100% DMSO were added in triplicate to cells to yield a final concentration of 0.1% DMSO (v/v). […] Cell culture supernatants were collected, and levels of various human cytokines were assessed as indicated by standard ELISA procedure according to the manufacturer's recommended protocol (BD Biosciences, Inc., San Diego, Calif.).

[4] = biological target: Human TLR4 (Homo sapiens, UniProt O00206); experiment: Human PBMC cell-based assay, LPS stimulus, IL-6 ELISA; set-up: endogenous in cells; host or cells: primary human PBMC from healthy donor blood; conditions: Hu PBMC; ligand LPS; analyte IL-6
Sequence of Human TLR4 (O00206 24-839): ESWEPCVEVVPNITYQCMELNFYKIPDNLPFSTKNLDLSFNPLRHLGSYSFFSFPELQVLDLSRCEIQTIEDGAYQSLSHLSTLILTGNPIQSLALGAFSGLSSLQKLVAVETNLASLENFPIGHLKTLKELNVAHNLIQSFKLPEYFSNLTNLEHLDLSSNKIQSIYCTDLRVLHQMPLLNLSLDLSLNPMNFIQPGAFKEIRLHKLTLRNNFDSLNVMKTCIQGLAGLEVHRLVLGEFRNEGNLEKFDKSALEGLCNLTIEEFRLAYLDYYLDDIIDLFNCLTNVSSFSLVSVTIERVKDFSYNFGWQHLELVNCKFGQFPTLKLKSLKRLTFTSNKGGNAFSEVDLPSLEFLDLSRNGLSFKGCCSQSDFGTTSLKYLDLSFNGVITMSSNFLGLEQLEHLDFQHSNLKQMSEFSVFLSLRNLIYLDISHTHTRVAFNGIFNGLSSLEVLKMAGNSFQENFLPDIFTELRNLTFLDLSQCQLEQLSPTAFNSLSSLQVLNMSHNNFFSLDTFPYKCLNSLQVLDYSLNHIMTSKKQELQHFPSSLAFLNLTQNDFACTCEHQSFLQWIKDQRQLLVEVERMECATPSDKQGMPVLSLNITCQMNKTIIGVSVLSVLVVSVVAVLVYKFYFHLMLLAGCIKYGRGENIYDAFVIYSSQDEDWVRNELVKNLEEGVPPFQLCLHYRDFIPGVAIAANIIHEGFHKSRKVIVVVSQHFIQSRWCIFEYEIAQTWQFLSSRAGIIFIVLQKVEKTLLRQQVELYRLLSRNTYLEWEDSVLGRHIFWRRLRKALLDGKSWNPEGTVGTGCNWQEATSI
Sequence of Human TLR4 (Q9Y6Y9 19-160 partner): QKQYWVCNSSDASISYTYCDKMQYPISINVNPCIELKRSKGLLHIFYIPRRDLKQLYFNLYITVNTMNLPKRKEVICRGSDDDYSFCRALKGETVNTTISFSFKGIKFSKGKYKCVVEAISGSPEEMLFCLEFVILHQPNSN
Procedure: as §1, with “Human peripheral blood mononuclear cells (PBMC) were isolated from freshly-drawn heparinized (10 USP units/ml, Hospira, Lakeforest, Ill.) healthy donor whole blood by density gradient (Histopaque® 1077, Sigma, Inc., St. Louis, Mo.). Briefly,” for “Briefly,”, “temperature. […]” for “temperature.”
as §2

[5] = Human PBMC IL-6 Inhibition (SL4-Ig Ligand), read-out: Human PBMC IC50

Compound | IC50 [1, 5] [µM] | IC50 [2] [µM] | IC50 [3] [µM] | IC50 ([1]; Hu PBMC, ligand RNA-Ig, analyte IL-6, read-out: IC50) [µM] | IC50 ([1]; read-out: IC50 against the RNA-Ig TLR7/8 stimulus) [µM] | IC50 [4] [µM]
Cc1nn(C)cc1C1CC(C(F)(F)F)n2nc(-c3ccc4c(cnn4C)c3C)cc2N1 (stereo not drawn) [ER-892900] | 0.744 | 0.33 | – | – | – | –
Cc1nn(C)cc1[C@H]1C[C@@H](C(F)(F)F)n2nc(-c3ccc4c(cnn4C)c3C)cc2N1 [ER-893987] | 2.11 | 0.22 | – | – | – | –
CCN(CCO)CCCC(C)Nc1ccnc2cc(Cl)ccc12 (stereo not drawn) [HCQ, Hydroxychloroquine, reference compound] | – | – | 0.15 to 0.3 | 1 to 2 | ~1.5 | > 10

Results, then the compound that gave them:

IC50 [1, 5] [µM] | IC50 [2] [µM] | IC50 [3] [µM] | IC50 ([1]; Hu PBMC, ligand RNA-Ig, analyte IL-6, read-out: IC50) [µM] | IC50 ([1]; read-out: IC50 against the RNA-Ig TLR7/8 stimulus) [µM] | IC50 [4] [µM] | Compound
0.414 | 0.3 | – | – | – | – | COc1cc(-c2cc3n(n2)C(C(F)(F)F)CC(c2ccc(OC)c(OC)c2)N3)ccn1 (racemic) [ER-886434]
0.16 | 0.22 | – | – | – | – | COc1ccc([C@H]2C[C@@H](C(F)(F)F)n3nc(-c4ccc(C(=O)N5CCNCC5)cc4)cc3N2)cc1OC [ER-892924]
